# Measurements taken from patent US9572807B2, “Protocols for treatment of major depressive disorder (MDD)” (NEURALSTEM, INC., priority 2014, dated 2017).
# Tests used:
# [1] = test system: patients with symptomatic MDD; assay: Montgomery-Asberg Depression Rating Scale (MADRS), Phase 1B study; format: in vivo, human; conditions: for MADRS value: FIG. 2; for Cohen's d value, MADRS (ANCOVA): all test groups (n=18) vs placebo (n=6)
# Experimental: A double-blind, placebo-controlled, multiple-ascending-dose study employing the compound of formula (1) was performed in patients with symptomatic MDD. Twenty-four subjects were recruited, with their diagnosis and illness severity confirmed through an independent, remote SAFER interview (Targum, S. D., et al., CNS Neurosci. Ther. (2008) 14:2-9) from the Massachusetts General Hospital (MGH) Clinical Trials Network and Institute (CTNI) raters. Each patient underwent a screening for eligibility (Day −37 to Day −6 or −3) and eligible patients were admitted into the unit on Day −5 to complete their wash-out and be reconfirmed for eligibility and for baseline assessments. The patients received daily dosing of formula (1) or placebo for 28 days starting on Day 1 and were followed for safety, pharmacokinetics (PK) and pharmacodynamics (PD) until discharge. At the conclusion of in-house dosing (Day 28), patients remained in the unit for up to 3 additional days, at the psychiatrist's discretion. On Day 35 (±3), Day 42 (±3), Day 49 (±3) and Day 70 (±3) outpatient follow-up visits took place. Patients returned to the unit for extensive follow-up on Day 56 (±3) and Day 84 (±3) (End-of-study).
# The subjects were randomized into four groups of 6 patients each to receive 40 mg of formula (1) per dose administered orally in gelatin capsules once daily, twice daily or three times daily to provide 40 or 80 or 120 mg daily of formula (1) or placebo for 28 days. Each cohort included at least 3 female subjects. In this example, qEEG was used to characterize pharmacodynamic effects.
# In this example, the results of the study of Example 1 were evaluated by the efficacy assessments that included the Montgomery-Asberg Depression Rating Scale (MADRS), the Clinician Global Impression-Improvement (CGI-I), the Symptoms of Depression Questionnaire (SDQ) and the Cognitive and Physical Functioning Questionnaire (CPFQ). […] These improvements persisted over time during the follow-up for MADRS, SDQ and CPFQ.
# Baseline values were adjusted for initial differences and the results for the placebo group (n=6) and the tested groups (n=18) were collapsed. The sizes of the effects were estimated as Cohen's d group mean differences where d=0.20 indicates only a small difference, d=0.50 indicates a medium difference and d=0.80 indicates a large difference. Cohen's d values are described in Cohen, J. (1988) Statistical Power Analysis for the Behavioral Sciences (2nd ed.), Lawrence Erlbaum Associates. D values are used when the scale of a dependent variable is not inherently meaningful, the difference between means are considered in standardized units. That is, effect size is measured in terms of the number of standard deviations by which the means differ. Two commonly used measures are Hedges' g and Cohen's d. Both of these measures consist of the difference between means divided by the standard deviation. They differ only in that Hedges' g uses the version of the standard deviation formula in which division is by N−1, whereas Cohen's d uses the version in which division is by N.
# Covariance is a measure of how much two variables change together and how strong the relationship is between them (Lenth, R. V., The American Statistician (2001) 55:187-193). Analysis of covariance (ANCOVA) is a general linear model which blends analysis of variance (ANOVA) and regression. ANCOVA evaluates whether population means of a dependent variable (DV) are equal across levels of a categorical independent variable (IV), while statistically controlling for the effects of other continuous variables that are not of primary interest, known as covariates (CV). Therefore, when performing ANCOVA, the DV means are adjusted to what they would be if all groups were equal on the CV. In the CGI-I assay, Day 7 was used as the baseline value; in the remaining assays, Day 0 was used as baseline.
# [2] = test system: patients with symptomatic MDD; assay: Cognitive and Physical Functioning Questionnaire (CPFQ), Phase 1B study; format: in vivo, human; conditions: FIG. 4
smiles,measurement,setting,value
CC(C)CCNc1ncccc1C(=O)N1CCN(Cc2ccccc2)CC1 [formula (1)],MADRS value,"[1]; 40 mg/day, controls (n=2) 23.5",12.5
same,MADRS value,"[1]; 80 mg/day, controls (n=2) 18",15
same,MADRS value,"[1]; 120 mg/day, controls (n=2) 18",16
same,MADRS Means,"[1]; Day 14, 1x = 40 mg/day oral (n=6)",20.1667
same,MADRS Means,"[1]; Day 14, 2x = 80 mg/day oral (n=6)",18.8333
same,MADRS Means,"[1]; Day 14, 3x = 120 mg/day oral (n=6)",15.8333
same,MADRS Means,"[1]; Day 14, all three dose groups pooled (n=18)",18.2778
same,MADRS Means,"[1]; Day 28, 1x = 40 mg/day oral (n=6)",12.6667
same,MADRS Means,"[1]; Day 28, 2x = 80 mg/day oral (n=6)",15
same,MADRS Means,"[1]; Day 28, 3x = 120 mg/day oral (n=6)",16.5
same,MADRS Means,"[1]; Day 28, all three dose groups pooled (n=18)",14.7222
same,"Cohen's d value, MADRS (ANCOVA)",[1]; Day 30,0.95
same,MADRS Means,"[1]; Day 56 (follow-up after 28 days dosing), 1x = 40 mg/day oral",14.3333
same,MADRS Means,"[1]; Day 56 (follow-up after 28 days dosing), 2x = 80 mg/day oral",12
same,MADRS Means,"[1]; Day 56 (follow-up after 28 days dosing), 3x = 120 mg/day oral",11.3333
same,MADRS Means,"[1]; Day 56 (follow-up after 28 days dosing), all three dose groups pooled (n=18)",12.5556
same,MADRS Means,"[1]; Day 84 (follow-up after 28 days dosing), 1x = 40 mg/day oral",15
same,MADRS Means,"[1]; Day 84 (follow-up after 28 days dosing), 2x = 80 mg/day oral",12
same,MADRS Means,"[1]; Day 84 (follow-up after 28 days dosing), 3x = 120 mg/day oral",10.8
same,MADRS Means,"[1]; Day 84 (follow-up after 28 days dosing), all three dose groups pooled",12.7059
same,"Cohen's d value, MADRS (ANCOVA)",[1]; Day 85,0.84
same,MADRS Means,"[1]; Day −5 (baseline before dosing), 1x = 40 mg/day group",24.8333
same,MADRS Means,"[1]; Day −5 (baseline before dosing), 2x = 80 mg/day group",24.6667
same,MADRS Means,"[1]; Day −5 (baseline before dosing), 3x = 120 mg/day group",24.3333
same,MADRS Means,"[1]; Day −5 (baseline before dosing), all three dose groups pooled (n=18)",24.6111
same,CPFQ value,"[2]; 40 mg/day, control group (n=2) 3.75",2.8
same,CPFQ value,"[2]; 120 mg/day, controls (n=2) 3.3",2.6
